Counter-ions that a name gives are not always drawn.
Key:
[1] = Moisture re-absorption of the dried (anhydrous) salt on exposure to humidity; assay type: physicochemical; details: after prolonged drying to anhydrous (moisture content up to 0.7% by weight); exposed at 60% relative humidity
Description: Anhydrous Ziprasidone monohydrochloride is disclosed in U.S. Pat. No. 5,312,925. The Ziprasidone monohydrochloride-hydrate of the present invention can be made anhydrous having moisture content up to 0.7% by weight, after prolonged drying. It has been observed that the compound re-absorbs moisture up to 6% when it is exposed at 60% relative humidity.

[2] = Solubility in common organic solvents; assay type: physicochemical
Experimental: Therefore, another objective of the present invention is to find a suitable solvent or solvent mixture to purify crude Ziprasidone base to obtain the required purity with minimal loss of material. The crude Ziprasidone obtained from step (a) is dissolved in a mixture of tetrahydrofuran and N,N-dimethylformamide (7:3, v/v) with activated charcoal and heated to clarify the solution. The solution obtained is filtered, washed with a cold solvent mixture of THF and DMF and dried. The dried Ziprasidone is obtained in 99% HPLC purity.

SMILES	moisture re-absorbed [1]	solubility in most of the common organic solvents [2]
O=C1Cc2cc(CCN3CCN(c4nsc5ccccc45)CC3)c(Cl)cc2N1 [Ziprasidone monohydrochloride-hydrate, 5-(2-(4-1,2-benzisothiazol-3-yl)piperazinyl)ethyl)-6-chloro-1,3-dihydro-2H-indol-2-one Monohydrochloride-hydrate]	up to 6%	
O=C1Cc2cc(CCN3CCN(c4nsc5ccccc45)CC3)c(Cl)cc2N1 [Ziprasidone, 5-(2-(4-(1,2-benzisothiazol-3-yl)-1-piperazinyl)ethyl)-6-chloro-1,3-dihydro-2H-indole-2-one]		poor solubility

Source: patent publication US20070078143A1, “Method for preparing Ziprasidone monohydrochloride-hydrate” (Wockhardt Limited, priority 2003, published 2007)
